From US7696313B2, “Prodrug compounds with isoleucine” (priority 2000, dated 2010)
Where two headings read alike, the source gives them in different places.

Assays:
[1] = Metabolism and clearance in normal mice (plasma and urine, LC MS/MS); type: in vivo
Description: The metabolism and clearance of Suc-Ile-Ala-Leu-Dox was studied in normal mice. The mice were administered Suc-Ile-Ala-Leu-Dox at a single intravenous bolus dose of 117 mg/kg. Plasma samples were obtained at 1 and 4 hours. Plasma samples of 100 μl were transferred to Eppendorf tubes (1.5 mL) and an internal standard of daunorubicin (20 μL at 0.5 mg/ml) was added together with acetonitrile (400 μl). The tubes were capped and briefly vortexed followed by centrifugation at 14,000 rpm. 420 μl from each tube was removed and dried in vacuo. Each sample was reconstituted in 65 μl ammonium formate containing acetonitrile (20%) prior to analysis by reverse phase liquid chromatography in combination with tandem mass spectrometry (LC MS/MS).
Urine was collected at 2 and 24 hours post administration from pairs of mice in metabolic cages. Urine samples were diluted with ammonium formate containing acetonitrile (20%) to give a target analyte concentration within the practical range of the LC MS/MS assay. 30 μl of each diluted sample was placed in an Eppendorf tube (1.5 ml) and an internal standard of daunorubicin (20 μL at 0.5 mg/ml) was added together with 50 μl of ammonium formate containing acetonitrile (20%). Each sample was then analyzed by LC MS/MS.
An Agilent HP 1100. HPLC with DAD detector and Chemstation software was coupled to a PE Sciex API 365 mass spectrometer with an electrospray ion source.
HPLC was performed on a TSK-Gel Super ODS, […], 4.6×50 mm (TosoHaas) reversed phase column equipped with a […] C18 guard disc (Higgins Analytical) and stainless steel frit (Upchurch Scientific). Chromatography was performed at room temperature. The flow rate was 0.5 ml/min. Injection volume was 50 μl. Gradient elution was performed using a mobile phase of 20 mM ammonium formate with increasing amounts of acetonitrile. The API 365 was operated at 365° C. in a multiple reaction monitoring mode, set to monitor specific analyte parent-daughter ion pairs. Integration of chromatograms was performed by MacQuan software (PE Sciex) and quantitation of each analyte obtained by comparison to previously obtained calibration curves. Daunorubicin was used as an internal standard in all cases.
Percent of administered dose—plasma volume estimated at 40% of blood volume, which was calculated at 7% of animal's body weight.
Plasma samples were obtained at 1 and 4 hours from separate mice. Urine was collected at 2 and 24 hours post administration from pairs of mice in metabolic cages. The plasma and urine samples were prepared and analyzed as described in Example 4.

[2] = as above; type: in vivo; remark: listed apart in the source
[3] = Initial single dose Maximum Tolerated Dose (MTD) study, 28 days; type: in vivo, mice; conditions: mouse, in vivo, intravenous
Description: In our initial single dose Maximum Tolerated Dose (MTD) study, groups of five normal mice were administered intravenous bolus doses of Suc-Ile-Ala-Leu-Dox. The mice were observed daily for 28 days and body weights measured twice weekly.
The mice were observed daily for 28 days and body weights measured twice weekly.
In the single dose Maximum Tolerated Dose (MTD) studies, groups of normal mice were administered intravenous bolus doses of the prodrug. The mice were observed daily for 28 days and body weights measured twice weekly. The MTD was estimated to be equal to the highest dose that produced no death in mice after 28 days.

[4] = Repeat-dose tolerance (RD-MTD) in tumor bearing mice; type: in vivo; conditions: mouse, in vivo, corrected results
Description: In repeat-dose studies in tumor bearing mice, groups of ten mice were dosed with various amounts of prodrug for a total of five doses at either five day or 1 week intervals.

[5] = test system: carcinoma cell trouase (MCF 7/6 cell homogenate, MCF 7/6 conditioned media, HeLa cell extract anion exchange fraction pool); assay: Cleavage assay with carcinoma cell enzyme (trouase) preparations; type: biochemical, human; conditions: under appropriate assay conditions
Description: A good candidate for a prodrug with improved therapeutic index is activated by cancer cells but relatively stable in whole human blood. Three different preparations of carcinoma cell trouase were used to screen various test compounds. These three preparations were as follows:
(a) MCF 7/6 (breast carcinoma) cell homogenate
(b) MCF 7/6 (breast carcinoma) conditioned media, and
(c) HeLa (cervical carcinoma) cell extract anion exchange fraction pool.
MCF 7/6 cells were grown to confluence in a serum free medium containing DMEM:F12 (1:1), 50 mg/L bovine serum albumin, ITS-X (10 mg/L insulin, 5.5 mg/L transferrin, 6.7 μg/L Na selenite, 2 mg/L ethanolamine), and Lipid Concentrate (Gibco #21900-030)100 mL of cells were harvested by centrifugation at 4° C. 10,000×g, for 20 min and decanting the supernatant. The pellet was resuspended in 2 mL phosphate buffered saline (Gibco) and centrifuged at 18,000×g for 10 min. […]
A portion of the ultracentrifugation supernatant was diluted 2-fold with a 20 mM triethanolamine-HCl pH 7.2 buffer containing 0.01% (w/v) Triton X-100 and 0.02% (w/v) sodium azide (equilibration buffer). […] Its transformation into Ala-Leu-Dox was quantified by reverse phase high performance liquid chromatography utilizing fluorescence detection of the anthracycline moiety. […]

[6] = after Suc-Ile-Ala-Leu-Dox 117 mg/kg single intravenous bolus
[7] = after Suc-βAla-Ile-Ala-Leu-Dox 117 mg/kg single intravenous bolus

COc1cccc2c1C(=O)c1c(O)c3c(c(O)c1C2=O)C[C@@](O)(C(=O)CO)C[C@@H]3O[C@H]1C[C@H](NC(=O)[C@H](CC(C)C)NC(=O)[C@H](C)N)[C@H](O)[C@H](C)O1 [Ala-Leu-Dox]
Plasma 1 hr, percent of administered dose ([1]; mouse, in vivo): 0.00 % of administered dose
Plasma 4 hr, percent of administered dose ([1]; mouse, in vivo): 0.00 % of administered dose
Urine 24 hr, percent of administered dose ([1]; mouse, in vivo): 0.00 % of administered dose

COc1cccc2c1C(=O)c1c(O)c3c(c(O)c1C2=O)C[C@@](O)(C(=O)CO)C[C@@H]3O[C@H]1C[C@H](NC(=O)[C@@H](N)CC(C)C)[C@H](O)[C@H](C)O1 [Leu-Dox]
Plasma 1 hr, percent of administered dose [1, 6]: 0.02 % of administered dose
Plasma 4 hr, percent of administered dose [1, 6]: 0.00 % of administered dose
Urine 2 hr, percent of administered dose ([1]; after Suc-Ile-Ala-Leu-Dox 117 mg/kg, collected 0-2 hours): 1.17 % of administered dose
Urine 24 hr, percent of administered dose ([1]; after Suc-Ile-Ala-Leu-Dox 117 mg/kg, collected 2-24 hours): 2.25 % of administered dose
Plasma 1 hr, percent of administered dose [2, 7]: 0.04 % of administered dose
Plasma 4 hr, percent of administered dose [2, 7]: 0.00 % of administered dose
Urine 2 hr, percent of administered dose ([2]; after Suc-βAla-Ile-Ala-Leu-Dox 117 mg/kg, collected 0-2 hours): 4.69 % of administered dose
Urine 24 hr, percent of administered dose ([2]; after Suc-βAla-Ile-Ala-Leu-Dox 117 mg/kg, collected 2-24 hours): 2.29 % of administered dose

COc1cccc2c1C(=O)c1c(O)c3c(c(O)c1C2=O)C[C@@](O)(C(=O)CO)C[C@@H]3O[C@H]1C[C@H](NC(=O)[C@H](CC(C)C)NC(=O)[C@H](C)NC(=O)[C@H](CC(C)C)NC(=O)CCC(=O)O)[C@H](O)[C@H](C)O1 [Suc-Leu-Ala-Leu-Dox, reference compound]
MTD at 28 days ([3]; 28 days, uncorrected doses, read-out: SD MTD (mg/kg), Table 7): > 117 mg/kg
MTD at 28 days ([3]; SD MTD, doxorubicin equivalent dose, Table 8, value in parentheses, corrected results): 35 mg/kg
MTD at 28 days ([3]; SD MTD, molar equivalent dose of doxorubicin, Table 7, value in parentheses, uncorrected): > 70 mg/kg
MTD at 28 days ([3]; corrected results, read-out: SD MTD (mg/kg), Table 8): 59 mg/kg
Major Plasma Metabolite, Table 7 (mouse, in vivo): Leu-Dox
Major Plasma Metabolite, Table 8 (mouse, in vivo): Leu-Dox
MTD at 60 days ([4]; Repeat Dose MTD, doxorubicin equivalent dose, Table 8, value in parentheses): 31 mg/kg
MTD at 60 days ([4]; Q 5D × 5 or Q 7D × 5, read-out: Repeat Dose MTD (mg/kg), Table 8): 52 mg/kg

COc1cccc2c1C(=O)c1c(O)c3c(c(O)c1C2=O)C[C@@](O)(C(=O)CO)C[C@@H]3O[C@H]1C[C@H](NC(=O)[C@H](CC(C)C)NC(=O)[C@H](C)NC(=O)[C@H](CC(C)C)NC(=O)CCNC(=O)CCC(=O)O)[C@H](O)[C@H](C)O1 [Suc-βAla-Leu-Ala-Leu-Dox, reference compound]
Major Plasma Metabolite, Table 7 (mice): Ala-Leu-Dox
Major Plasma Metabolite, Table 8 (mice): Ala-Leu-Dox

CC[C@H](C)[C@H](NC(=O)CCNC(=O)CCC(=O)O)C(=O)N[C@@H](C)C(=O)N[C@@H](CC(C)C)C(=O)N[C@H]1C[C@H](O[C@H]2C[C@](O)(C(C)=O)Cc3c(O)c4c(c(O)c32)C(=O)c2c(OC)cccc2C4=O)O[C@@H](C)[C@H]1O [succinyl-βAla-Ile-Ala-Leu-Daunorubicin]
cleavage activity of trouase [5]: at least twenty-fold less active

COc1cccc2c1C(=O)c1c(O)c3c(c(O)c1C2=O)C[C@@](O)(C(C)=O)C[C@@H]3O[C@H]1C[C@H](NC(=O)[C@H](CC(C)C)NC(=O)[C@H](C)NC(=O)[C@H](CC(C)C)NC(=O)CCNC(=O)CCC(=O)O)[C@H](O)[C@H](C)O1 [succinyl-βAla-Leu-Ala-Leu-Daunorubicin, reference compound]
cleavage activity of trouase [5]: readily cleaves
